Reference: article PMC4838890, “Dynamic and flexible H3K9me3 bridging via HP1β dimerization establishes a plastic state of condensed chromatin” (Nature Communications, 2016)
Entries after “also recorded” stand apart in the source; their conditions may differ.

Columns and labels:
[1] = target: asymmetrically modified H3K9me3-mononucleosomes; assay: SPR, immobilized asymmetric H3K9me3 mononucleosome; set-up: species or system Xenopus laevis; conditions: SPR titration 0.024 to 50 µM, asymmetrically modified mononucleosome at 950 RU, one site-specific binding model; read-out: apparent Kd (Supplementary Fig. 8k)
[2] = tested on: H3K9me0 oligonucleosomes; assay: Fluorescence correlation spectroscopy (FCS), H3K9me0 oligonucleosomes; format: biochemical, Xenopus laevis; conditions: 150 mM NaCl
Procedure: All fluorescence measurements were performed with a pulsed custom-built mode-locked Ti:Sa-Laser and a confocal two-photon fluorescence microscope setup. Detailed description of the experimental setup and the measurement procedure are available on request. In all cases 10 nM of the acceptor labelled species, ATTO 610-labelled nucleosomal array, was incubated with 20–200 μM of recombinant hHP1β in 10 μl of 10 mM triethanolamine HCl (pH 7.5), 0.1 mM EDTA, 150 mM NaCl at 4°C. For each sample the fluorescence correlation curve, fluorescence intensity and anisotropy values were determined at 22°C. Every data point was averaged over a minimum of 15 single measurements of 10 s each. […]
The fluorescence data were analysed using the correlation function [drawing 1] , and the equation for free diffusion of particles [drawing 2] , where I(t) is the fluorescence intensity measured at time t, N the particle number, τD the diffusion time, and r0=0.25 the axis ratio of the focal region, considering the dimensions of a Gaussian beam waist. […]
(b) Results of stepwise precipitation and resolubilization after clustering H3K9me3-oligonucleosomes by hHP1β at different concentrations. DNA remaining in the supernatant after centrifugation was incubated with EtBr and measured by fluorescence reading. […]
(c) Instrumental setup used for two -photon fluorescence correlation spectroscopy (FCS). […]

[3] = tested on: H3K9me3 oligonucleosomal templates containing tailless H2A, H2B or H4; assay: Chromatin sedimentation (clustering), H3K9me3 oligonucleosomes with tailless histones; format: biochemical, Xenopus laevis; conditions: 150 mM NaCl, n=3
Procedure: Figure 3 hHP1β clusters oligonuclesomal arrays in dependence of H3K9me3. (a) Oligonucleosomes (2.5 nM) were incubated with increasing concentrations of hHP1β WT or I161A at 150 mM NaCl. DNA remaining in the supernatant after centrifugation was incubated with EtBr and measured by fluorescence reading. Data were normalized to amounts in absence of added protein. Averages of three independent experiments are plotted; error bars represent s.d.; n=3. (b) Analysis of the hydrodynamic radius of oligonucleosomes (10 nM; DNA labelled with ATTO 610) in the presence of increasing concentrations of hHP1β WT or I161A by FCS at 150 mM NaCl. For details on experimental setup see Supplementary Fig. 3. Error bars represent s.d.; n=3. (c) Oligonucleosomes were reconstituted after mixing H3K9me0 and H3K9me3 octamers at different ratio. […] (d) Precipitation behaviour of oligonucleosomes (2.5 nM) was analysed at different concentrations of NaCl with hHP1β WT at saturating concentration. […] Precipitated material was analysed by western blotting. […] Complexes were fixed with 0.05% (v/v) glutaraldehyde, spotted on mica surfaces and analysed by scanning force microscopy. […] (h) Quantification of results representatively shown in g according to the classification on the top: A, extended; B, partially condensed; C, fully condensed; D; aggregates; n>50 for each condition. […]

[4] = tested on: DNA fragment of 150 bp; assay: Electrophoretic mobility shift assay (EMSA); format: binding; conditions: 150 bp DNA, 0, 3, 9 μM protein, 100 mM NaCl, 5 mM MgCl2, RT
Procedure: 50 ng 150 bp DNA amplified from the backbone of pUC18 was incubated with 0, 3, 9 μM recombinant protein in 10 μl EMSA buffer (10 mM Tris-HCl (pH 8.0), 100 mM NaCl, 5 mM MgCl2) for 20 min at room temperature (RT). 2 μl 50% (v/v) glycerol was added and samples were loaded onto 6% native PAGE gels. After electrophoresis, DNA was visualized by staining with 1 × SYBR Gold/0.25 × TBE for 20 min at RT. Images were captured using a ChemiDoc MP Imaging System (Bio-Rad, München, Germany). […]
crosslinking Fig. S6e,f nucleosomes […]
crosslinking Fig. S7a,b nucleosomes
EMSA Fig. 1g; Fig. 5c; n//a RT 100 5
1Preincubation of oligonucleosomes and h HP1β was performed at 4 °C . Measurements wer e carried out at the in dicated te mperature.
2in increments o f 0 .5 mM
3MgCl2 was added at the end of incubation to coprecipitate oligonucleosomes a nd bound hHP1β.

“hHP1β WT: recombinant human heterochromatin protein 1β (GenBank NM_001127228), 185 aa” was tested, and the Kd [1] was 7.5 µM, the “assemblies with H3K9me0 oligonucleosomes (FCS)” value [2] was “larger assemblies only appeared at high hHP1β WT concentrations” and the “clustering of oligonucleosomes with tailless histones” value [3] was “clustered H3K9me3 oligonucleosomes containing tailless H2A or H2B as efficiently as H3K9me3-oligonucleosomes containing WT core histones; also recorded: the effect on H3K9me3 oligonucleosomes containing tailless H4 was impaired”. The DNA binding [4] was “hHP1α but not hHP1β showed a high level of general DNA binding”.
